Measurements as given in patent US20020151707A1, “Immune mediators and related methods” (Corixa Corp., priority 1995, published 2002).

Experiments:
NOD MHC Class II I-A^g7 = settings: known from the literature (Reich et al.); cited from earlier work
[1] = system: T cell lines derived from one HLA-DRB1*0404 patient (ThHo); assay: Reactivity of GAD-reactive human T cell lines to synthetic GAD peptides (3H-thymidine proliferation); assay type: cell-based; settings: for number of T cell lines stimulated: of 4 T cell lines
Protocol: T-cell clones were rested (not given IL-2 for 2 days, at least 7 days post-stimulation with antigen), washed, counted and resuspended in 15% PHS medium. They were plated at 25,000 cells/well in […] 15% PHS medium. Autologous or HLA-class II-matched PBMNCs are loaded with GAD by incubating with GAD (about […]) for at least 5 hours. The cells are washed and irradiated with 3000 rads. These cells are washed and resuspended in 15% PHS medium, and added to the T-cells at a concentration of 1×10^6 cells/well in […] 15% PHS medium. The cells were incubated for 48 hours, then pulsed with […] 3H-thymidine and harvested. A positive response is considered to be a stimulation index >3 (stimulation index SI=average cpm of sample stimulated with antigen/average cpm of sample of cells stimulated with no antigen or control antigen). Some controls include T-cells alone, stimulators alone, a purified negative antigen, GAD purified from baculovirus, PHA, and IL-2.
Other methods, well known in the art, for testing clones and lines include dose response to antigen; response to these antigens or negative antigen controls; determination of HLA-class II restriction by adding blocking anti-HLA class II antibody to plates; and use of peptides to load stimulators to determine peptide specificity, which can be done as described above except the peptides are tested by dose titration and left in the assay. A dose response in combination with peptide specificity tests can also be done.
Four individual T cell lines derived from one HLA-DRB1*0404 patient (ThHo) were used to map the 74 synthetic GAD peptides, overlapping sets of 20 mers, that span the entire length of GAD 65 (SEQ. ID. NO. 59). Antigen presenting cells, BLS-DRB1*0404 and/or BLS-DRB1*0401 (Kovats et al., J. Exp. Med. 179:2017-22, 1994), were loaded with peptide by incubating with peptide (about […]) for at least 5 hours. Reactivity of T-cells was determined as above. One peptide, hGAD 33 ([…] SEQ. ID. NO. 40) stimulated 3 or the 4 lines with BLS-B1*0404. […]

[2] = system: C-terminal amidated GAD65+I-A^g7 restricted T cell hybridomas (MBD.1, MBD2.3, MBD2.7, MBD2.8, MBD2.11, MBD2.14); assay: Activation of GAD65 restricted T-cell hybridomas, read as CTLL proliferation in response to IL-2; assay type: cell-based, NOD mouse; settings: hybridoma MBD.1; peptide + I-A^g7 of NOD APCs; CTLL cells
Protocol: To determine specificity of the T-cell hybridomas, antigen-presenting cells (APCs) were prepared by grinding NOD mice spleens and lysing as in Example 11. The splenocytes were brought to 3 ml in Bruff's medium containing 10% FBS. Mitomycin C (Sigma) was added at 0.3 ml per 3 ml of cell suspension to prevent DNA synthesis. The APCs were incubated for 30 minutes in a 37° C. water bath, and then washed 3 times in Bruff's medium containing 10% FBS, each time centrifuging for 5 minutes at 1200 RPM. After the final wash, the APCs were brought to a concentration of 2×10^6 cells/ml in Bruff's medium containing 10% FBS. C-terminal amidated GAD65 peptide was titered from 333 μg/ml to 0.15 μg/ml in round bottom 96 well plates. Fifty microliters (1×10^5) APCs were added to the peptides. Hybridomas were counted and brought to a concentration of 1×10^6 cells/ml in Bruff's medium containing 10% FBS, and 100 μl (1×10^5) cells was added to each well. Hybridomas were also tested against the following: I-A^g7 MHC +a peptide other than C-terminal amidated GAD65; an MHC other than I-A^g7+C-terminal amidated GAD65; the I-A^g7 MHC alone; and C-terminal amidated GAD65 alone. The plate was incubated at 37° C., 5% CO2, overnight. […] Incorporation of ^3H-thymidine into the DNA was measured on a Wallac 1205 Betaplate Beta Counter (Turku, Finland). […]

NOD recipient mice = assay: Adoptive transfer of IDDM with splenocytes from diabetic NOD mice; assay type: in vivo, NOD mouse
Text: IDDM can also be adoptively transferred by transplanting splenic cells from a diabetic-donor to a non-diabetic recipient (Baron et al., J. Clin. Invest. 93:1700-08, 1994). This method involves treating in vivo activated mature T cells. Briefly, NOD/CaJ mice are irradiated (730 rad) and randomly divided into treatment groups. Splenocytes, preferably about 1.5×10^7, from newly diabetic mice are isolated and injected intravenously into non-diabetic NOD 7-8 week old recipient mice, followed six hours later with intravenous injections of saline, peptide or MHC:peptide complex at 10, 5, or 1 μg/mouse. The injections are repeated on days 4, 8 and 12 following the original injection. Mice are tested for the onset of diabetes by urine analysis, and at the time of sacrifice, blood glucose. Treatment of these mice with an MHC:peptide complex is expected to lengthen the time period before the onset of diabetes and/or to prevent or ameliorate the disease. […]
IDDM can be adoptively transferred by injecting splenic cells from a diabetic donor into a non-diabetic recipient. […] Those animals showing positive urine values of at least 250 mg/dl glucose were further analyzed for blood glucose levels using tail clippings, and if the blood glucose was also at or above 250 mg/dl, the mice were classified as overtly diabetic. […]

## MSA: Mouse serum albumin (MSA), a known allele-specific peptide (SEQ. ID. NO. 61), positive control
NOD MHC Class II I-A^g7
  affinity for I-A^g7 (control peptides): high affinity

## PGGAISNMYA [ID; NO; 41]
[1]; APC BLS-B1*0404 versus BLS-DRB1*0401
  stimulation of T-cell line, HLA restriction: stimulated the same T-cell line only when presented by BLS-B1*0404

## PGGAISNMYAM [ID; NO; 39]
[1]; presented by either BLS-B1*0404 or BLS-DRB1*0401
  number of T cell lines stimulated: one

## PGGAISNMYAMMIARFKMFP (PGGAISNMYAMMIARFKNFP) [hGAD 33, ID; NO; 40]
[1]; peptide presented by BLS-B1*0404
  number of T cell lines stimulated: 3

## SRLSKVAPVIKARMMEYGTT [same GAD65 peptide (aa 524-543) with a carboxylic group at the C-terminus]
[2]
  proliferative response (lesser response): > 2000 CMP

## SRLSKVAPVIKARMMEYGTT-NH2 [C-terminal amidated GAD65 peptide]
[2]
  proliferative response, incorporated 3H-thymidine: > 5000 cpm
NOD recipient mice; 10 μg/mouse peptide alone
  mice that had developed disease by day 30: over 75%
NOD recipient mice; mouse, in vivo
  overall effect on onset of diabetes in the adoptive transfer model: accelerated the onset of diabetes
